SMILES strings stand for the structures. Bounds are passed on as bounds.

Here are results for four compounds from publication PMC10117637 (Frontiers in Pharmacology, 2023).

One data set concerns Caco-2 cells. Kind of data set: Cell viability assay (MTT), nontoxic concentration. The data set is classed as cell-based, human. To be noted: 48 h. As for the experimental part:
The cytotoxicity of EDM and DEDM was assessed in Caco-2 cells using the aforementioned MTT test. These alkaloids were produced as solutions in DMSO and then diluted in cell culture media. Inoculating Caco-2 cells (1 × 10^4cells/well) in 96-well plates with 200 μL of media. After additional 48 h of incubation with EDM and DEDM (final test alkaloids concentrations ranged from 0.4 to 200 μM, and DMSO was less than 0.05%), the medium was discarded. To each well, an aliquot of 190 μL freshly prepared DMEM (serum-free) having 10.0 μL MTT (5 mg/mL) was added. The medium in every well was then removed from the plate after a further 4 h at 37°C of incubation. In 100 μL of DMSO, the purple formazan product was dissolved. Using a microplate reader, the ratio of absorbance (treated to untreated cells) at 490 nm was employed to measure cell viability.

The next data set is described as follows: in vitro. To be noted: human, Caco-2, pH 7.4.
The test system of data set [1] is Caco-2 cell monolayers. Kind of data set: Caco-2 cell transport assay (Papp, efflux ratio). To be noted: Caco-2 monolayers. In general terms: Caco-2 cells form a polarised layer with tight junctions and transporters.
Method: (§1) The Center of Cellular Resources at the Chinese Academy of Sciences (Shanghai, China) provided the human colon adenocarcinoma cell line Caco-2, and the experiment utilized 15–30 generations of these cells. DMEM enriched with 15% FBS, 1% non-essential amino acids, 1% Penicillin-Streptomycin Solution (×100), and 1% sodium pyruvate was utilized to cultivate cells at 37°C in a humidified atmosphere of 5% CO2. The cells were separated from flasks when they achieved the anticipated confluence threshold (70%–80%), and they were then inoculated in 12-well plates at a density of 2–5 × 10^5 cells/cm^2 in a polycarbonate Transwell® (pore size: 0.4 µm; filter area: 1.12 cm^2). In the first week, the culture media was switched every 2 days.
(§2) Caco-2 monolayers were pre-cultured in HBSS for 15 min at 37°C after being rinsed two times with preheated Hanks' balanced salt solution (HBSS, pH = 7.4). The donor side was supplemented with DEDM (25, 50, and 100 μM) and EDM (2.5, 5, and 10 μM), and the receiver chamber was filled with the corresponding volume of HBSS medium. For 120 min, the plate was incubated at 37°C. At 0, 30, 45, 60, 90, and 120 min, a 0.5 mL aliquot of each receiver chamber’s sample was taken, and 0.5 mL of HBSS was added to keep the volume constant. By using high-performance liquid chromatography (HPLC), the samples were examined. The sample (300 μL) taken from the receiver chamber was mixed with 300 μL of acetonitrile, and the combination was centrifuged for 10 min at 13,000 rpm. Lastly, a 100 µL aliquot of the supernatant was injected into the HPLC for examination.
(§3) Two drugs were quantitatively determined using an Agilent 1,260 HPLC apparatus (United States). A C18 column (1.8 μm, 3.0 × 150 mm; Agilent Technologies, Santa Clara, CA, United States) was used for the separation, with a column temperature of 25°C. The mobile phase comprised both A (water) and B (acetonitrile). The ratio between A and B was 70: 30 with a flow rate of 1 mL per minute. For EDM or DEDM, 20 μL samples were injected and analyzed at 290 nm or 344 nm, respectively. Acetonitrile was used to create the standard stock solutions for EDM and DEDM, respectively. By serially diluting standard stock solutions with HBSS, working solutions were made. The effective concentrations were 0.04–2.5 μg/mL for EDM and 0.23–7.5 μg/mL for DEDM, respectively. These samples were stored at 4°C before being used.
(§4) Eqs 1, 2 were used to determine the apparent permeability coefficients (Papp) and efflux ratio (ER) of marker drugs: Papp=dQ/dtC0A (1) where dQ/dt is the cumulative transport rate (M/min), C0 is the initial concentration of each marker drug, and A is the surface area of the filters. ER=PappBL−AP/PappAP−BL (2)
(§5) Data for transport experiments are presented as the mean ± SD of six independent experiments.
A short description of data set [2]: Tissue distribution and PK after tail vein injection. The format is in vivo, mice. As for the experimental part:
The mixture was then transferred to a sterile centrifuge tube after being repeatedly ground for 30 min with a tiny amount of ordinary saline added. After that, saline was added and ultrasonically processed for 1 h. In a vacuum freeze drier, the suspension was freeze-dried for 30 h. To make the injection, the freeze-dried powder was ultimately redissolved in regular saline. After acclimatization, all mice were acclimated before being randomly placed into four groups of three each: EDM (H) group, EDM (L) group, DEDM (H) group, DEDM (L) group. […] Supernatant plasma from the collected sample was transferred into another tube and kept at −80°C until analysis after being centrifuged at 3,000 rpm for 10 min. Immediately after blood was obtained, the mice were dissected. Saline was injected into the heart until the liver turned white. […] The calibration standards, tissue samples, and plasma samples were pretreated with acetonitrile for protein precipitation. […] To remove the denatured protein, the mixture was vortexed for 1 min and then centrifuged at 16,500 rpm for 10 min. The supernatant was finally injected into the LC-MS/MS in an aliquot of 100 µL for analysis. […] Using an isocratic elution, the EDM and DEDM were analyzed. […] With a flow rate of 0.3 mL/min, the ratio between A and B was 20: 80 for 4 min. The column temperature was kept at 35°C. Prior to injection, samples were transferred in an auto-sampler at a temperature of 4°C and 5 µL was the injection volume. […] The ion source was electrospray ionization (ESI) and adopts positive ion mode. The scan mode was multiple reaction monitoring (MRM). The operating conditions for the EDM and DEDM were 4000 V capillary voltage. […] Acetonitrile was used to prepare standard stock solutions for each type of EDM and DEDM individually. By diluting the standard stock solutions serially with acetonitrile, working standards for the EDM and DEDM were made. The calibration curve samples were acquired by spiking the series working standard solutions (10 μL) into a tube and evaporating the solvent, and then adding blank mouse tissue homogenate or plasma (100 μL). […] DEDM is used as an internal standard compound when detecting EDM. Meanwhile, when DEDM is detected, EDM is used as the internal standard compound. The final concentration of the internal standard compound is 10 ng/mL. […] For the Non-compartmental PK analysis, Thermo Kinetica (Version 5.0, Thermo Electron Corporation, Waltham, MA) was employed. Based on observed data, the time when the maximum tissue concentration was reached (Tmax) and the maximum tissue concentration (Cmax) were assessed. […] Additionally, the mean residence time (MRT) was computed. PK parameters are reported as the mean of […]. Linear and non-linear regressions were analyzed in Microsoft Excel 2016® (United States).

Details of data set [3]: method as in Lin et al., 2012. The conditions noted are these: ref Lin et al., 2012; cited from earlier work.
Data set [4] deals with Caco-2 cell monolayers. The conditions noted are these: pH 7.4.
Method: as §1, §2, §3, §4, §5

Method for in vitro: as §1, §2, §3, §4, §5

A word on the Papp: it is the rate of passage across a membrane or cell layer, normalised by area and donor concentration. Read a low Papp as poor permeation. Compound `O=c1c2ccccc2nc2n1CCc1c-2[nH]c2ccccc12` [RUP, rutaecarpine] displayed a Nontoxic concentration with Caco-2 cells (human) of 100 µM. For the same compound, the Papp at 120 min in the data set “in vitro” was no less than 1 ×10⁻⁶ cm/s. In addition, the “bidirectional transport comparison, secretory (basolateral→apical) vs absorptive (apical→basolateral) permeability” value in the data set on Caco-2 cell monolayers [1] is recorded as “more than twice as high in the secretory direction”.
In turn, `COc1ccc2c(OC)c3ccoc3nc2c1` [EVT, evolitrine] yielded a Nontoxic concentration in the data set on Caco-2 cells (human) of 100 µM. This compound also registered an apparent permeability (Papp) at 120 min in “in vitro” of roughly 10 ×10⁻⁶ cm/s. For the same compound, the “bidirectional transport comparison, secretory (basolateral→apical) vs absorptive (apical→basolateral) permeability” value in the data set with Caco-2 cell monolayers [1] is “nearly comparable”.
By Tmax is commonly meant the time from dosing to the highest level. The term half-life denotes the time needed for the level to fall by half in the phase considered. The low end stands for fast loss, the high end for slow loss. `C[n+]1c2n(c(=O)c3ccccc31)CCc1c-2[nH]c2ccccc12` [dehydroevodiamine]: in the data set with Caco-2 cells (human), the Nontoxic concentration worked out at 100 µM. In the data set “in vitro”, the Papp at 120 min is 10 ×10⁻⁶ cm/s. Besides, in data set [2] (Kindy, 10 mg/kg tail vein, mice, average), the AUC0-t was 1.87 µg·h/g. For the same compound, in data set [2] (mouse, in vivo), the “time to maximum plasma concentration (Cmax)” value is recorded as no more than 15 min. For the same compound, the Tmax is 45 min in data set [2] (mouse, in vivo, iv, 5 mg/kg); 15 min in data set [2] (mouse, in vivo, iv, 10 mg/kg, Tmax); 15 min in data set [2] (mouse, in vivo, time to peak concentration in different tissues). The same compound had a half-life in data set [2] (mouse, in vivo, iv, Lung, 5 mg/kg tail vein, mice, average) of 107 min. Besides, in data set [3], the oral bioavailability was 15.35%. Further, the “bidirectional transport comparison, secretory (basolateral→apical) vs absorptive (apical→basolateral) permeability” value in the data set with Caco-2 cell monolayers [1] is reported as “nearly comparable”. Also, the permeability class result with Caco-2 cell monolayers [1] (from Papp level) was “high permeability”.
`O=c1c2cccc(O)c2nc2n1CCc1c-2[nH]c2ccccc12` [1-HRUP, 1-hydroxyrutaecarpine] gave a Nontoxic concentration with Caco-2 cells (Caco-2 cells, MTT) of 100 µM. In the data set with Caco-2 cell monolayers [4], this compound showed a Papp of no less than 1 ×10⁻⁶ cm/s. The “bidirectional transport comparison, secretory (basolateral→apical) vs absorptive (apical→basolateral) permeability” value in the data set with Caco-2 cell monolayers [1] is recorded as “nearly comparable”.
